Reference: US11510920B2, “Compositions and methods for treating EZH2-mediated cancer” (Icahn School of Medicine at Mount Sinai, priority 2016, dated 2022)

Columns and labels:
Type in all cases: cell-based
HCC1187 cells = assay: Proliferation assay (IncuCyte cell confluence), HCC1187; conditions: Homo sapiens, concentration for 50% of maximal inhibition of cell proliferation
Protocol: (§1) 1-3×10^3 cells were seeded in 96-well plates in duplicates and treated at the indicated compound concentrations. Cells were monitored using the IncuCyte® live cell imaging system (Essen BioScience™, Ann Arbor, Mich.) which was placed in a cell culture incubator operated at 37° C. and 5% CO2. Cell confluence was determined using calculations derived from phase-contrast images. The concentration for 50% of maximal inhibition of cell proliferation (GI50) values were determined by fitting to a standard four-parameter logistic using GraphPad Prism® v5. Graphs depicting the GI50s of select EZH2 degraders/disruptors described here for various cancer cell lines are shown in FIGS. 4-49.

MCF-7 cells = assay: Proliferation assay (IncuCyte cell confluence), MCF-7; conditions: Homo sapiens, MCF7, concentration for 50% of maximal inhibition of cell proliferation
Protocol: as §1

HCC1170 cells = assay: Proliferation assay (IncuCyte cell confluence), HCC1170; conditions: concentration for 50% of maximal inhibition of cell proliferation
Protocol: as §1

MDA-MB-468 cells = assay: Proliferation assay (IncuCyte cell confluence), MDA-MB-468; conditions: Homo sapiens, concentration for 50% of maximal inhibition of cell proliferation
Protocol: as §1

HCC1954 cells = assay: Proliferation assay (IncuCyte cell confluence), HCC1954; conditions: Homo sapiens, concentration for 50% of maximal inhibition of cell proliferation
Protocol: as §1

BT549 cells = assay: Proliferation assay (IncuCyte cell confluence), BT549; conditions: Homo sapiens, BT-549, concentration for 50% of maximal inhibition of cell proliferation
Protocol: as §1

| SMILES | GI50 (HCC1187 cells) | GI50 (MCF-7 cells) | GI50 (HCC1170 cells) | GI50 (MDA-MB-468 cells) | GI50 (HCC1954 cells) | GI50 (BT549 cells) |
| --- | --- | --- | --- | --- | --- | --- |
| CCCc1cc(C)[nH]c(=O)c1CNC(=O)c1cc(-c2ccc(N3CCN(CCNC(=O)CC45CC6CC(CC(C6)C4)C5)CC3)nc2)cc2c1cnn2C(C)C [AM16-10A, 6-(6-(4-(2-(2-((3r,5r,7r)-adamantan-1-yl)acetamido)ethyl)piperazin-1-yl)pyridin-3-yl)-1-isopropyl-N-((6-methyl-2-oxo-4-propyl-1,2-dihydropyridin-3-yl)methyl)-1H-indazole-4-carboxamide] | 0.57 µM | 1.2 µM | 1.2 µM | 1.4 µM |  |  |
| Cc1cc(C)c(CNC(=O)c2cc(-c3ccc(N4CCN(C(=O)CC56CC7CC(CC(C7)C5)C6)CC4)nc3)cc3c2cnn3C(C)C)c(=O)[nH]1 [AM16-92A, 6-(6-(4-(2-((1s,3s)-adamantan-1-yl)acetyl)piperazin-1-yl)pyridin-3-yl)-N-((4,6-dimethyl-2-oxo-1,2-dihydropyridin-3-yl)methyl)-1-isopropyl-1H-indazole-4-carboxamide] | 1.1 µM | 1 µM |  |  |  |  |
| Cc1cc(C)c(CNC(=O)c2cc(-c3ccc(N4CCN(CCNC(=O)C56CC7CC(CC(C7)C5)C6)CC4)nc3)cc3c2cnn3C(C)C)c(=O)[nH]1 [AM16-101A, 6-(6-(4-(2-((1s,3s)-adamantane-1-carboxamido)ethyl)piperazin-1-yl)pyridin-3-yl)-N-((4,6-dimethyl-2-oxo-1,2-dihydropyridin-3-yl)methyl)-1-isopropyl-1H-indazole-4-carboxamide] |  | 0.69 µM |  | 1.1 µM |  |  |
| Cc1cc(C)c(CNC(=O)c2cc(-c3ccc(N4CCN(CCNCCC56CC7CC(CC(C7)C5)C6)CC4)nc3)cc3c2cnn3C(C)C)c(=O)[nH]1 [AM16-103A, 6-(6-(4-(2-((2-((3r,5r,7r)-adamantan-1-yl)ethyl)amino)ethyl)piperazin-1-yl)pyridin-3-yl)-N-((4,6-dimethyl-2-oxo-1,2-dihydropyridin-3-yl)methyl)-1-isopropyl-1H-indazole-4-carboxamide] |  |  |  | 1.2 µM | 2.1 µM | 1.4 µM |
| Cc1cc(C)c(CNC(=O)c2cc(-c3ccc(N4CCN(CCNC(=O)[C@H](C)CCC56CC7CC(CC(C7)C5)C6)CC4)nc3)cc3c2cnn3C(C)C)c(=O)[nH]1 [AM16-105A, 6-(6-(4-(2-((2R)-4-((1r,3S)-adamantan-1-yl)-2-methyl-butanamido)ethyl)piperazin-1-yl)pyridin-3-yl)-N-((4,6-dimethyl-2-oxo-1,2-dihydropyridin-3-yl)methyl)-1-isopropyl-1H-indazole-4-carboxamide] | 1.2 µM | 2.3 µM |  |  |  |  |
| Cc1cc(C)c(CNC(=O)c2cc(-c3ccc(N4CCN(CCNC(=O)CC56CC7CC(C)(CC(C)(C7)C5)C6)CC4)nc3)cc3c2cnn3C(C)C)c(=O)[nH]1 [AM29-21A, N-((4,6-dimethyl-2-oxo-1,2-dihydropyridin-3-yl)methyl)-6-(6-(4-(2-(2-((1r,3R,5S,7r)-3,5-dimethyladamantan-1-yl)acetamido)ethyl)piperazin-1-yl)pyridin-3-yl)-1-isopropyl-1H-indazole-4-carboxamide] |  | 0.28 µM |  | 0.2 µM |  |  |
| Cc1cc(C)c(CNC(=O)c2cc(-c3ccc(N4CCN(CCNC(=O)C56CC7CC(C)(CC(C)(C7)C5)C6)CC4)nc3)cc3c2cnn3C(C)C)c(=O)[nH]1 [AM29-22A, N-((4,6-dimethyl-2-oxo-1,2-dihydropyridin-3-yl)methyl)-6-(6-(4-(2-((1R,3S)-3,5-dimethyladamantane-1-carboxamido)ethyl)piperazin-1-yl)pyridin-3-yl)-1-isopropyl-1H-indazole-4-carboxamide] |  | 0.69 µM |  | 0.87 µM |  |  |
| Cc1cc(C)c(CNC(=O)c2cc(-c3ccc(N4CCN(CCC(=O)NCC56CC7CC(CC(C7)C5)C6)CC4)nc3)cc3c2cnn3C(C)C)c(=O)[nH]1 [AM29-33A, 6-(6-(4-(3-((((3r,5r,7r)-adamantan-1-yl)methyl)amino)-3-oxopropyl)piperazin-1-yl)pyridin-3-yl)-N-((4,6-dimethyl-2-oxo-1,2-dihydropyridin-3-yl)methyl)-1-isopropyl-1H-indazole-4-carboxamide] |  | 0.7 µM |  | 0.71 µM |  |  |
| Cc1cc(C)c(CNC(=O)c2cc(-c3ccc(N4CCN(CCNC(=O)CC5C6CC7CC(C6)CC5C7)CC4)nc3)cc3c2cnn3C(C)C)c(=O)[nH]1 (stereo not drawn) [AM29-182A, 6-(6-(4-(2-(2-((1r,3r,5r,7r)-adamantan-2-yl)acetamido)ethyl)piperazin-1-yl)pyridin-3-yl)-N-((4,6-dimethyl-2-oxo-1,2-dihydropyridin-3-yl)methyl)-1-isopropyl-1H-indazole-4-carboxamide] |  |  |  | 1.8 µM | 3.9 µM | 2.5 µM |
| Cc1cc(C)c(CNC(=O)c2cc(-c3ccc(N4CCN(CCNC(=O)CC56CC7CC(CC(C7)C5)C6)CC4)nc3)cc3c2cnn3C(C)C)c(=O)[nH]1 [XY019-43, 6-(6-(4-(2-(2-((3r,5r,7r)-adamantan-1-yl)acetamido)ethyl)piperazin-1-yl)pyridin-3-yl)-N-((4,6-dimethyl-2-oxo-1,2-dihydropyridin-3-yl)methyl)-1-isopropyl-1H-indazole-4-carboxamide] | 0.65 µM | 0.35 µM |  | 0.54 µM | 2.7 µM | 2.2 µM |
